Results taken from patent publication US9695155B2, “Herbicidal substituted pyrimidinyloxy benzene compounds” (E. I. DU PONT DE NEMOURS AND COMPANY, priority 2013, dated 2017).

Legend:
wheat, winter = assay: Test C postemergence; assay type: in vivo, Triticum aestivum; settings: for Plant response rating (0 to 100), Wheat: postemergence; for Plant response rating, Wheat: Postemergence, scale 0 to 100 (0 no effect, 100 complete control)
Procedure, shortened: (§1)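 Rated visually on 0–100 (100 = complete control) after 13–15 days under glass. Treatments went onto freshly seeded loam/sand soil or onto emerged plants at the 1- to 4-leaf stage, using a surfactant-containing solvent formulation.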

pigweed = assay: Test C preemergence; assay type: in vivo, Amaranthus retroflexus; settings: for Pigweed plant response rating: preemergence, scale 0 (no effect) to 100 (complete control)
Procedure, shortened: as §1

corn [1] = assay: Test C postemergence; assay type: in vivo, Zea mays; settings: for Plant response rating (0 to 100), Corn: postemergence; for Plant response rating, Corn: Postemergence, scale 0 to 100 (0 no effect, 100 complete control)
Procedure, shortened: as §1

wheat = assay: Test A preemergence; assay type: in vivo, Triticum aestivum
Procedure, shortened: (§2)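 Compounds in non-phytotoxic solvent with surfactant applied as soil spray preemergence, or postemergence to plants 2-10 cm at one- to two-leaf stage, in loam/sand. After approximately 10 days in greenhouse, injury rated visually versus untreated controls, 0 (no effect) to 100 (complete control).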

chickweed = assay: Test C postemergence; assay type: in vivo, Stellaria media; settings: for Plant response rating (0 to 100), Chickweed: postemergence; for Plant response rating, Chickweed: Postemergence, scale 0 to 100 (0 no effect, 100 complete control)
Procedure, shortened: as §1

barnyardgrass [2] = assay: Test C postemergence; assay type: in vivo, Echinochloa crus-galli; settings: for Plant response rating (0 to 100), Barnyardgrass: postemergence; for Plant response rating, Barnyardgrass: Postemergence, scale 0 to 100 (0 no effect, 100 complete control)
Procedure, shortened: as §1

large (Lg) crabgrass [3] = assay: Test C postemergence; assay type: in vivo, Digitaria sanguinalis; settings: for Plant response rating (0 to 100), Crabgrass, Large: postemergence; for Plant response rating, Crabgrass, Large: Postemergence, scale 0 to 100 (0 no effect, 100 complete control)
Procedure, shortened: as §1

waterhemp = assay: Test C postemergence; assay type: in vivo, Amaranthus rudis; settings: for Plant response rating (0 to 100), Waterhemp: postemergence; for Plant response rating, Waterhemp: Postemergence, scale 0 to 100 (0 no effect, 100 complete control)
Procedure, shortened: as §1

barnyardgrass [4] = assay: Test B flooded paddy test; assay type: in vivo, Echinochloa crus-galli; settings: Flood, 250 g ai/ha; 0 to 100 scale where 0 is no effect and 100 is complete control
Procedure, shortened: (§3)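 Post-emergence paddy-water application at the 2-leaf stage, with 3 cm flood kept for the whole test. Response was judged visually relative to controls after 13 to 15 greenhouse days, 0 indicating no effect and 100 complete control.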

sedge, umbrella = assay: Test B flooded paddy test; assay type: in vivo, Cyperus difformis; settings: Flood, 250 g ai/ha; 0 to 100 scale where 0 is no effect and 100 is complete control
Procedure, shortened: as §3

giant foxtail = assay: Test C postemergence; assay type: in vivo, Setaria faberii; settings: for Plant response rating (0 to 100), Foxtail, Giant: postemergence; for Plant response rating, Foxtail, Giant: Postemergence, scale 0 to 100 (0 no effect, 100 complete control)
Procedure, shortened: as §1

corn [5] = assay: Test A preemergence; assay type: in vivo, Zea mays
Procedure, shortened: as §2

large (Lg) crabgrass [6] = assay: Test A postemergence; assay type: in vivo, Digitaria sanguinalis
Procedure, shortened: as §2

large (Lg) crabgrass [7] = assay: Test C preemergence; assay type: in vivo, Digitaria sanguinalis; settings: for Crabgrass, Large plant response rating: preemergence, scale 0 (no effect) to 100 (complete control)
Procedure, shortened: as §1

lambsquarters = assay: Test C postemergence; assay type: in vivo, Chenopodium album; settings: for Plant response rating (0 to 100), Lambsquarters: postemergence; for Plant response rating, Lambsquarters: Postemergence, scale 0 to 100 (0 no effect, 100 complete control)
Procedure, shortened: as §1

[8] = Preemergence, 31 g ai/ha, scale 0 to 100, 0 no effect, 100 complete control
[9] = 125 g ai/ha, 0 to 100 scale where 0 is no effect and 100 is complete control
[10] = 500 g ai/ha, 0 to 100 scale, 0 no effect, 100 complete control, approx. 10 days

N#Cc1cccc(Oc2ncc(F)cn2)c1-n1cc(Cl)cn1 [Compound 73]
Plant response rating (0 to 100), Wheat (wheat, winter; 125 g ai/ha): 0
Plant response rating (0 to 100), Wheat (wheat, winter; 250 g ai/ha): 5
Plant response rating, Wheat (wheat, winter; 31 g ai/ha, 13 to 15 days): 0
Plant response rating, Wheat (wheat, winter; 62 g ai/ha): 0
Pigweed plant response rating (pigweed; 62 g ai/ha): 100
Pigweed plant response rating (pigweed; 125 g ai/ha): 100
Pigweed plant response rating (pigweed; 250 g ai/ha): 100
Plant response rating, Pigweed (pigweed; [8]): 100
Plant response rating (0 to 100), Corn (corn [1]; 125 g ai/ha): 10
Plant response rating (0 to 100), Corn (corn [1]; 250 g ai/ha): 10
Plant response rating, Corn (corn [1]; 31 g ai/ha, 13 to 15 days): 5
Plant response rating, Corn (corn [1]; 62 g ai/ha): 5
Plant response rating, Wheat (wheat; [9]): 0
Wheat plant response rating (wheat; [10]): 80
Plant response rating (0 to 100), Chickweed (chickweed; 125 g ai/ha): 50
Plant response rating (0 to 100), Chickweed (chickweed; 250 g ai/ha): 80
Plant response rating, Chickweed (chickweed; 31 g ai/ha, 13 to 15 days): 50
Plant response rating, Chickweed (chickweed; 62 g ai/ha): 50
Plant response rating (0 to 100), Barnyardgrass (barnyardgrass [2]; 125 g ai/ha): 10
Plant response rating (0 to 100), Barnyardgrass (barnyardgrass [2]; 250 g ai/ha): 35
Plant response rating, Barnyardgrass (barnyardgrass [2]; 31 g ai/ha, 13 to 15 days): 0
Plant response rating, Barnyardgrass (barnyardgrass [2]; 62 g ai/ha): 0
Plant response rating (0 to 100), Crabgrass, Large (large (Lg) crabgrass [3]; 125 g ai/ha): 10
Plant response rating (0 to 100), Crabgrass, Large (large (Lg) crabgrass [3]; 250 g ai/ha): 20
Plant response rating, Crabgrass, Large (large (Lg) crabgrass [3]; 31 g ai/ha, 13 to 15 days): 5
Plant response rating, Crabgrass, Large (large (Lg) crabgrass [3]; 62 g ai/ha): 10
Plant response rating (0 to 100), Waterhemp (waterhemp; 125 g ai/ha): 75
Plant response rating (0 to 100), Waterhemp (waterhemp; 250 g ai/ha): 90
Plant response rating, Waterhemp (waterhemp; 31 g ai/ha, 13 to 15 days): 50
Plant response rating, Waterhemp (waterhemp; 62 g ai/ha): 60
Plant response rating, Barnyardgrass (barnyardgrass [4]): 0
Plant response rating, Sedge, Umbrella (sedge, umbrella): 85
Plant response rating (0 to 100), Foxtail, Giant (giant foxtail; 125 g ai/ha): 10
Plant response rating (0 to 100), Foxtail, Giant (giant foxtail; 250 g ai/ha): 30
Plant response rating, Foxtail, Giant (giant foxtail; 31 g ai/ha, 13 to 15 days): 0
Plant response rating, Foxtail, Giant (giant foxtail; 62 g ai/ha): 5
Plant response rating, Corn (corn [5]; [9]): 20
Corn plant response rating (corn [5]; [10]): 70
Plant response rating, Crabgrass, Large (large (Lg) crabgrass [6]; [9]): 90
Plant response rating, Crabgrass, Large (large (Lg) crabgrass [6]; 500 g ai/ha, 0 to 100 scale, 0 no effect, 100 complete control): 100
Crabgrass, Large plant response rating (large (Lg) crabgrass [7]; 62 g ai/ha): 100
Crabgrass, Large plant response rating (large (Lg) crabgrass [7]; 125 g ai/ha): 100
Crabgrass, Large plant response rating (large (Lg) crabgrass [7]; 250 g ai/ha): 100
Plant response rating, Crabgrass, Large (large (Lg) crabgrass [7]; [8]): 100
Plant response rating (0 to 100), Lambsquarters (lambsquarters; 125 g ai/ha): 70
Plant response rating (0 to 100), Lambsquarters (lambsquarters; 250 g ai/ha): 80
Plant response rating, Lambsquarters (lambsquarters; 31 g ai/ha, 13 to 15 days): 25
Plant response rating, Lambsquarters (lambsquarters; 62 g ai/ha): 55
